Entries after “also recorded” stand apart in the source; their conditions may differ. Read-outs that look alike come from different tables or passages of the source.
Assay: plasma pharmacokinetics (LC–MS/MS, noncompartmental analysis)
Format: in vivo, human
Details: for Tmax / AUC / Cmax / half-life: human, plasma; for Cmax: read-out: Cmax, geometric mean (%CV); for half-life: read-out: t1/2z, mean (range) (converted)
Description: In addition, for patients on Q2D schedules, predose or trough samples were collected on days 9 and 15 (Q2D dosing) or days 8 and 15 (QW dosing) to evaluate time to steady state. […] Plasma concentration–time analysis was performed using noncompartmental analysis. The plasma PK parameters were estimated using a validated version of Phoenix WinNonlin software (Version 6.3 or above, Pharsight Corporation, Raleigh, NC). Terminal half-life was calculated based on the equation: t1/2 = ln2/kel (kel = elimination rate constant determined by linear regression analysis of selected time points in the apparent terminal phase of the log plasma concentration versus time curve).

[1] = po, 400 mg, 400 mg QW oral, cycle 1 day 22, plasma, n 3
[2] = po, 600 mg, 600 mg QW oral, cycle 1 day 22, plasma, n 20
[3] = po, 800 mg, 800 mg QW oral, cycle 1 day 22, plasma, n 3

SMILES: C[C@@H](NC(=O)c1ncnc(N)c1Cl)c1ncc(C(=O)Nc2cc(C(F)(F)F)c(Cl)cn2)s1 [tovorafenib]
- dose dependence of steady-state AUC48 (20 mg to 280 mg Q2D): approximately dose-proportional
- dose dependence of steady-state exposure (AUC168) (400 mg to 800 mg QW): approximately dose-proportional
- power model coefficient, dose versus steady-state AUC168 (400 mg to 800 mg QW, cycle 1 day 22, 95% CI 0.55–2.04): 1.30
- geometric mean Rauc (Q2D dosing regimen at 200 mg): ~ 2.55
- Tmax (oral, post-dose, Q2D and QW, read-out: overall median Tmax): 2 to 4 h
- AUC (po, 20 mg, 20 mg Q2D oral, cycle 1 day 21, plasma, n 3, read-out: AUC48, geometric mean (%CV)): 10.4 µg·h/mL
- Cmax (po, 20 mg, 20 mg Q2D oral, cycle 1 day 21, plasma, n 3): 302 ng/mL
- Tmax (po, 20 mg, 20 mg Q2D oral, cycle 1 day 21, plasma, n 3, read-out: tmax, median (min, max)): 2 h
- AUC (po, 40 mg, 40 mg Q2D oral, cycle 1 day 21, plasma, n 2, read-out: AUC48, geometric mean (%CV)): 20.9 µg·h/mL
- Cmax (po, 40 mg, 40 mg Q2D oral, cycle 1 day 21, plasma, n 2): 760 ng/mL
- Tmax (po, 40 mg, 40 mg Q2D oral, cycle 1 day 21, plasma, n 2, read-out: tmax, median (min, max)): 3 h
- AUC (po, 80 mg, 80 mg Q2D oral, cycle 1 day 21, plasma, n 3, read-out: AUC48, geometric mean (%CV)): 42.7 µg·h/mL
- Cmax (po, 80 mg, 80 mg Q2D oral, cycle 1 day 21, plasma, n 3): 2040 ng/mL
- Tmax (po, 80 mg, 80 mg Q2D oral, cycle 1 day 21, plasma, n 3, read-out: tmax, median (min, max)): 4 h
- AUC (po, 135 mg, 135 mg Q2D oral, cycle 1 day 21, plasma, n 3, read-out: AUC48, geometric mean (%CV)): 96.8 µg·h/mL
- Cmax (po, 135 mg, 135 mg Q2D oral, cycle 1 day 21, plasma, n 3): 3320 ng/mL
- Tmax (po, 135 mg, 135 mg Q2D oral, cycle 1 day 21, plasma, n 3, read-out: tmax, median (min, max)): 2 h
- AUC (po, 200 mg, 200 mg (n=7) Q2D oral, cycle 1 day 21, plasma, n 6, read-out: AUC48, geometric mean (%CV)): 118 µg·h/mL
- Cmax (po, 200 mg, 200 mg (n=7) Q2D oral, cycle 1 day 21, plasma, n 6): 3810 ng/mL
- Tmax (po, 200 mg, 200 mg (n=7) Q2D oral, cycle 1 day 21, plasma, n 6, read-out: tmax, median (min, max)): 3 h
- AUC (po, 200 mg, 200 mg (n=23; PK expansion cohort and 28-day cycle cohort) Q2D oral, cycle 1 day 21, plasma, n 14, read-out: AUC48, geometric mean (%CV)): 127 µg·h/mL
- Cmax (po, 200 mg, 200 mg (n=23; PK expansion cohort and 28-day cycle cohort) Q2D oral, cycle 1 day 21, plasma, n 14): 3680 ng/mL
- Tmax (po, 200 mg, 200 mg (n=23; PK expansion cohort and 28-day cycle cohort) Q2D oral, cycle 1 day 21, plasma, n 14, read-out: tmax, median (min, max)): 2 h
- AUC (po, 280 mg, 280 mg Q2D oral, cycle 1 day 21, plasma, n 4, read-out: AUC48, geometric mean (%CV)): 155 µg·h/mL
- Cmax (po, 280 mg, 280 mg Q2D oral, cycle 1 day 21, plasma, n 4): 4060 ng/mL
- Tmax (po, 280 mg, 280 mg Q2D oral, cycle 1 day 21, plasma, n 4, read-out: tmax, median (min, max)): 3 h
- AUC (po, 400 mg, 400 mg QW oral, cycle 1 day 22, plasma, n 3, read-out: AUC168, geometric mean (%CV)): 193 µg·h/mL
- Cmax [1]: 3140 ng/mL
- Tmax (po, 400 mg, 400 mg QW oral, cycle 1 day 22, plasma, n 3, read-out: Tmax, median (min, max)): 3 h
- half-life [1]: 52 h
- AUC (po, 600 mg, 600 mg QW oral, cycle 1 day 22, plasma, n 20, read-out: AUC168, geometric mean (%CV)): 330 µg·h/mL
- Cmax [2]: 5650 ng/mL
- Tmax (po, 600 mg, 600 mg QW oral, cycle 1 day 22, plasma, n 20, read-out: Tmax, median (min, max)): 3 h
- half-life [2]: ~70 h
- AUC (po, 800 mg, 800 mg QW oral, cycle 1 day 22, plasma, n 3, read-out: AUC168, geometric mean (%CV)): 473 µg·h/mL
- Cmax [3]: 6460 ng/mL
- Tmax (po, 800 mg, 800 mg QW oral, cycle 1 day 22, plasma, n 3, read-out: Tmax, median (min, max)): 4 h
- half-life [3]: 68.1 h
- accumulation in systemic circulation (day 22 AUC168 over day 1 AUC168) (repeated QW dosing, 400–800 mg): minimal accumulation; also recorded: Minimal to no apparent accumulation
